Results published in patent US8871789B2, “Method of preventing or treating viral infection” (The United States of America, as represented by the …, priority 2010, dated 2014).

Legend:
[1] = system: HSV-1; assay: HSV-1 IE mRNA levels in infected HFF cells; format: cell-based; conditions: increasing concentration of DMOG, HFF, FIG. 7
Procedure: FIG. 13 is a line graph showing viral IE (ICP4, ICP27, and ICP22) and control (S15, Sp1, and TBP) mRNA levels in HFF cells treated with DMSO or the indicated concentrations of ML324 for 3 hours and infected with HSV-1 (0.1 PFU per cell) for 3 hours. *P<0.0001, two-way ANOVA with Tukey's post hoc test. Data are means±SEM.
HSV-1 IE mRNA levels of ICP4 and ICP27 decrease in cells infected in the presence of DMOG. Human foreskin fibroblast (HFF) cells were infected with HSV-1 at 0.1 PFU/cell for 3 hrs in the presence of increasing concentrations of DMOG. Cells were harvested and the levels of viral IE (ICP4, ICP27) and cell control (s15) mRNAs were assessed by qRT-PCR.
All experiments were performed as described in Liang et al., Sci. Transl. Med. 5, 167ra5 (2013). N-(3-(dimethylamino)propyl)-4-(8-hydroxyquinolin-6-yl)benzamide (designated ML324) has the following characteristics: N-(3-(dimethylamino)propyl)-4-(8-hydroxyquinolin-6-yl)benzamide (1). LC-MS: rt (min)=3.033; ^1H NMR (400 MHz, DMSO-d6) δ 1.84-1.98 (m, 2H), 2.79 (s, 3H), 2.80 (s, 3H), 3.12 (ddd, J=10.2 Hz, 5.4 Hz and 5.2 Hz, 2H), 3.37 (q, 2H), 7.50 (s, 1H), 7.66 (dd, J=8.2 Hz and 4.3 Hz, 1H), 7.84 (s, 1H), 7.88-7.94 (m, 2H), 7.96-8.02 (m, 2H), 8.50 (d, J=8.2 Hz, 1H), 8.71 (t, J=5.6 Hz, 1H), 8.90 (d, J=4.1 Hz, 1H), 9.34 (brs, 1H); HRMS (ESI) m/z (M+H)^+ C21H24N3O2, 350.1867. found 350.1863.

[2] = system: HSV-1; format: cell-based, Balb/c mice; set-up: reduction of viral reactivation (viral yield): unit of the concentration uncertain
Procedure: FIG. 18 is a dot plot showing latently infected ganglia that were explanted in the presence of DMSO, ACV (100 mM), or ML324 (50 mM) for 48 hrs. Viral yields were determined from one half of each ganglia at 48 hrs (DMSO, ACV, ML324) and from the other half of each ganglia after drug reversal for an additional 72 hrs (ACV-R, ML324-R) [Wilcoxon matched pairs signed rank test, ACV vs ACV-R n=8, ML324 vs ML324-R n=10]. Data are means±SEM.
FIG. 19 is a dot plot showing viral yields from HSV-1 latently infected trigeminal ganglia that were explanted in the presence of DMSO, or 2 mM DMOG or 50 mM ML324 for 48 hours (DMSO versus DMOG: P=0.0015, Wilcoxon matched-pairs signed rank test; n=12; DMSO versus ML324: P<0.0001; n=20). Data are means±SEM.
Viral yields decrease from HSV-1 latently infected ganglia explanted in the presence of LSD1 or JMJD2 inhibitors (FIG. 11). Balb/c mice were infected with 5×10^6 PFU HSV-1 (strain F) per eye after corneal scarification. Latently infected mice were sacrificed 45 days post clearance of the primary infection and trigeminal ganglia were rapidly explanted into culture in the presence of 2 mM DMOG, 2 mM TCP, or control (DMSO or ACV, acyclovir) for 48 hours. Post explant incubation, the ganglia were homogenized and briefly sonicated. The reactivated viral yield of each ganglia was determined by titering the clarified supernatant on Vero cells. Statistical comparisons were made using Wilcoxon signed rank test (paired ganglia) with a statistical significance of <0.05. Each data point was the result of a single ganglia divided and treated in the presence and absence of DMSO and DMOG or DMSO and TCP. Therefore, a Wilcoxon signed rank test was used to assess differences between each treated and untreated sample. The significant difference between DMSO control and DMOG was p=0.0018. This test used an exact p-value for small sample sizes with an a level of 0.05. n=20. Analyses were made using Prism (V5.0a) and are expressed as the mean+/−s.e.m.

[3] = system: HSV-1; assay: HSV-1 ICP4 protein levels in infected HeLa cells (quantitative western blot); format: cell-based; conditions: increasing concentrations of DMOG, HSV-1 0.1 PFU/cell 3 hrs, FIG. 6
Procedure: HSV-1 IE protein levels of ICP4 decrease in cells infected in the presence of DMOG. HeLa cells were infected with HSV-1 at 0.1 PFU/cell for 3 hrs in the presence of increasing concentrations of DMOG. Cells were harvested and the levels of viral IE proteins (ICP4 shown) were determined by quantitative western blot analyses. As the concentration of DMOG is increased, the levels of ICP4 decrease (FIG. 6).

[4] = system: HSV-1; assay: HSV-1 lytic viral yields from HFF cells; format: cell-based; conditions: HFF pretreated 5 hrs, HSV-1 0.1 pfu/cell 24 hrs; FIG. 10
Procedure: FIG. 14 is a bar graph showing viral yields from HFF cells treated with DMSO or ML324 for 3 hours and infected with HSV-1 (0.1 PFUper cell) for 24 hours in the presence of the drugs. *P<0.004, one-way ANOVA with Dunnett's post hoc test. Data are means±SEM.
HSV-1 lytic viral yields decrease in the presence of DMOG (FIG. 10). HFF cells were pretreated with DMSO control or JMJD2 inhibitor DMOG for 5 hrs and infected with 0.1 pfu/cell of HSV-1 for 24 hrs in the presence of DMSO or DMOG. The yield of infectious virus derived from each treatment were determined by tittering on Vero cells according to standard procedures.

[5] = system: CMV; assay: CMV IE gene expression in HFF cells; format: cell-based; conditions: increasing concentration of DMOG, FIG. 9
From the text: CMV IE gene expression (IE1 and UL37) and control TBP (Tata binding Protein) in the presence of increasing concentrations of DMOG were also studied (FIG. 9). HFF were pretreated with the indicated concentration of DMOG for 3.5 hrs and infected with CMV for 4 hrs. Total RNA was extracted, reverse-transcribed, and cDNAs were quantitated by qPCR using primers to viral IE genes or control genes.

[6] = system: HSV-1 IE promoters; assay: ChIP of H3K9me3 / histone H3 on HSV-1 IE promoters in HeLa cells; format: cell-based; conditions: 2 mM DMOG 4 hours before infection; FIG. 8
Procedure: Hela cells were pretreated with 2 mM DMOG for 4 hours prior to infection. Cells were infected with 0.1 pfu/cell of HSV-1 for 3 hrs. Standard Chromatin-Immunoprecipitation procedures were preformed (Liang, Vogel, Narayanan, Peng & Kristie, 2009, Nature Med 15:1312-17) to determine the levels of total histone H3 or tri-methylated histone H3 associated with the indicated viral IE promoters.

[7] = system: HSV-1; assay: IE mRNA levels in explanted latently infected ganglia; format: cell-based, mice; conditions: 7 hours post explant; ICP4 and ICP27 mRNA; FIG. 12
Procedure: Total RNA was isolated and subjected to reverse transcription. The resulting cDNAs were analyzed for viral Immediate Early ICP4 and ICP27 mRNAs relative to an infected cell standard by nested or qPCR. In accordance with an embodiment of the invention, DMOG reduces the levels of viral mRNAs in explanted/reactivated ganglia.
IE gene transcription is repressed in explanted latently infected sensory ganglia in the presence of DMOG (FIG. 12). Total RNA was extracted from ganglia of latently infected mice explanted in the presence of control ACV or DMOG for 7 hours. Random primed cDNA was produced from total RNA using RNAqueous-4PCR and RETROscript (Ambion, Austin, Tex., USA) according to the manufacturer's recommendations. cDNAs were quantitated by nested PCR or qPCR using primers specific for the HSV-1 ICP4 and ICP27 IE mRNAs.

`COC(=O)CNC(=O)C(=O)OC` [DMOG, N-methoxyoxoacetyl-glycine methyl ester] was tested, and the “mRNA levels of ICP4 and ICP27” value ([1]; HSV-1 0.1 PFU/cell 3 hrs) was “decrease”, the “control mRNA (s15) level decrease” value [1] was “does not” and the “viral yield from explanted latently infected ganglia” value ([2]; 2 mM DMOG, 2 mM TCP or ACV, 48 hours, FIG. 11) was “decreases”. The “reduction of viral reactivation (viral yield)” value ([2]; 2 (unit uncertain), 48 hours explant, FIG. 19) was about 1.5 log, the “levels of ICP4 protein” value [3] was “decrease” and the “HSV-1 lytic viral yields” value [4] was “decrease”. For the same molecule, the “control mRNA (TBP) level decrease” value [5] was “does not”, the “CMV IE mRNA levels (IE1/IE7 and UL37)” value ([5]; HFF pretreated 3.5 hrs, CMV 4 hrs) was “decrease” and the “repressive chromatin (H3K9me3, H3) on HSV-1 IE promoters” value [6] was “accumulation of repressive chromatin”. The “IE gene transcription in explanted latently infected sensory ganglia” value [7] was “repressed”.
